Experiments:
[1] = cited from earlier work
[2] = cited from earlier work; remark: listed apart in the source
MDA-MB-231 tumors = test: EC17 dose finding and CRS assessment in MDA-MB-231 tumor-bearing mice; type: in vivo; conditions: for human IFNγ in mouse plasma, fold over CAR-T cells only: all EC17 treated tumor cohorts
Procedure: All animal care and use were performed according to NIH guidelines and in compliance with protocols approved by the Purdue University Animal Use and Care Committee. Female 4 to 5-week-old NOD/SCID gamma (NSG™) mice (stock number:005557) were purchased from The Jackson Faboratory (Bar Harbor, ME). Unless specifically indicated, all animals were maintained on a FA-deficient diet (TestDiet, St. Fouis, MO) upon arrival and throughout the study. To establish subcutaneous xenografts, MDA-MB-231 and HOS-FRα were implanted in the right flank region at 2.5×10^6 and 1×10^6 cells per animal, respectively. For intravenous xenografts, THP1-FRβ) cells were inoculated at 5×10^6 cells per animal. Subcutaneous tumors were measured 2-3 times per week with a caliper and calculated using the ellipsoidal formula (length×width2)/2. […] All animal doses (CAR-T cells, EC17, sodium fluorescein) were given intravenously.
In a therapeutic setting, EC17 CAM can be given before or after CAR-T cell injection. As described herein, the first dose of EC17 was administered 2-3.5 days after CAR-T cells to allow for an observation period of human T cells in tumor-bearing mice. Two batches of unsorted E2-CAR-T cells (23% or 39% EGFRt+, 1:1 CD4/CD8) were used for in vivo studies. On the day of infusion for each experiment (day 0), frozen CAR-T cells were quickly thawed at 37° C., washed 2× with Dulbecco's IX PBS (pH 7.4) and injected into the tail vein at desired EGFRt+E2-CAR-T cell doses. In addition, a small aliquot of CAR-T cells was analyzed by flow cytometry for CD4 to CD 8 ratio and differentiation status of CAR-T cells. On the first day of EC17 dose, tumor-bearing animals were randomly assigned into groups according to their tumor sizes or the same number of days post intravenous implantation (i.e., THP1-FRβ).
For MDA-MB-231 studies, mice received a high dose (~10 million) of a “clinical facsimile” of E2-CAR-T cells (~39% EGFRt+) with a low differentiation profile (FIG. 9). Two days later, 3 different treatment regimens of EC17 were started at an average tumor size of −293±39 mm^3 (FIG. 12). The EC17 dosing was given once-a-week (SIW) at 500 nmol/kg on Mondays, or as escalating doses of 5, 50 or 100, and 500 or 1000 nmol/kg (i.e., 5/50/500 or 5/100/1000) on Monday, Thursday, and Monday with a 6-day break in-between cycles. Control mice were left untreated (received CAR-T cells but no EC17). For comparison, a cohort of tumor-free littermates also received the same number of CAR-T cells without or with EC17 SIW at 500 nmol/kg.
The initial EC17 dose finding studies were conducted in MDA-MB-231 tumor bearing mice as shown by the schematic diagram of the experimental layout (FIG. 12, panel A). NSG mice without or with MDA-MB-231 tumors (~211±65 mm3) were engrafted on day 0 with −10 million of a “clinical facsimile” batch of E2-CAR-T cells (−39% EGFRt+, 51:49 CD4/CD8). This batch of CAR-T cells consisted of mostly TSCM and TCM phenotypes (see FIG. 9). Two days after the CAR-T cell injection, one cohort of tumor-bearing mice were left untreated while three cohorts were treated with different regimens of EC17, including single injection per week (SIW) at 500 nmol/kg, or as escalating EC17 dose levels of 5/50/500 (Escalation-1) or 5/100/1000 nmol/kg (Escalation-2) given on a Monday/Thursday/Monday schedule with 1-week drug-free intervals. For comparison, two tumor-free cohorts were either untreated or treated with EC17 SIW at 500 nmol/kg.

[3] = ~10 million CAR-T cells, continued EC17 dosing independent of the regimen

For `NC1=NC2N=CC(CNc3ccc(C(=O)N[C@@H](CCC(=O)NCCNC(=S)Nc4ccc(-c5c6ccc(=O)cc-6oc6cc(O)ccc56)c(C(=O)O)c4)C(=O)O)cc3)=NC2C(=O)N1` (some centres unmarked) [EC17, FA-(γ)-ethylenediamine-FITC], the clearance from circulation ([1]; 0.1 mg/kg intravenous) is given as “rapid clearance from circulation”, the “time EC17 fluorescence signal observed at the site of the tumor” value ([1]; after administration, latest time-point evaluated) is given as “up to 5 hours” and the “time to real-time visualization of malignant lesions” value ([1]; post EC17 administration) is given as no more than 2 h. For the same compound, the elimination half-life ([1]; single 10-minute intravenous infusion of 0.1 mg/kg, plasma) was 1.45 h, the “Maximum Tolerated Dose (MTD)” value ([2]; EC17 doses of 3.1×10^−2 and 2.76×10^−1 mg/kg in previously-conducted human studies) was “not reached” and the “subjects with mild hypersensitivity reaction (most common adverse event)” value ([2]; intravenous, single agent, 84 subjects) was 10.7%. For the same compound, the overall tolerability ([2]; intravenous, single agent) was “well tolerated”, the serious adverse events ([2]; intravenous, single agent) was “No serious adverse events were reported” and the cures (MDA-MB-231 tumors; EC17-treated cohorts) was 100%. The body weight loss (MDA-MB-231 tumors; EC17 Escalation-2 regimen 5/100/1000 nmol/kg) was “persistent body weight loss”, the “onset of CRS and body weight loss” value (MDA-MB-231 tumors; EC17 SIW at 500 nmol/kg) was “earliest onset of CRS and body weight loss” and the “human IFNγ in mouse plasma, fold over CAR-T cells only” value (MDA-MB-231 tumors; day 11 (~20 hours after previous EC17 dose)) was ~ 30 ×. For the same compound, the “human IFNγ in mouse plasma, fold over CAR-T cells only” value (MDA-MB-231 tumors; day 12 (~42 hours after previous EC17 dose)) was ~ 10 ×, the “EC17 dose triggering severe CRS (grade≥3)” value (MDA-MB-231 tumors; in combination with a high CAR-T cell dose) was no less than 500 nmol/kg and the “persistence of CAR-T cells in mouse blood” value (MDA-MB-231 tumors; tumor-bearing animals, last measurement) was “up to 54 days”. The “CRS symptoms (grades)” value (MDA-MB-231 tumors; [3]) was 2-3 and the body weight loss (MDA-MB-231 tumors; [3]) was “significant body weight losses”.
